Assay results published in patent US20240109864A1, “SUBSTITUTED PYRAZOLYL PIPERIDINE CARBOXYLIC ACIDS” (BAYER AKTIENGESELLSCHAFT, priority 2020, published 2024).
Structures can show the parent of a compound that is named as a salt.

Target: T1, recombinant guanylate cyclase reporter cell line (Rattus norvegicus, UniProt P20595)
T1 construct: expressed in transfected cells
T1 sequence (P20595 1-619): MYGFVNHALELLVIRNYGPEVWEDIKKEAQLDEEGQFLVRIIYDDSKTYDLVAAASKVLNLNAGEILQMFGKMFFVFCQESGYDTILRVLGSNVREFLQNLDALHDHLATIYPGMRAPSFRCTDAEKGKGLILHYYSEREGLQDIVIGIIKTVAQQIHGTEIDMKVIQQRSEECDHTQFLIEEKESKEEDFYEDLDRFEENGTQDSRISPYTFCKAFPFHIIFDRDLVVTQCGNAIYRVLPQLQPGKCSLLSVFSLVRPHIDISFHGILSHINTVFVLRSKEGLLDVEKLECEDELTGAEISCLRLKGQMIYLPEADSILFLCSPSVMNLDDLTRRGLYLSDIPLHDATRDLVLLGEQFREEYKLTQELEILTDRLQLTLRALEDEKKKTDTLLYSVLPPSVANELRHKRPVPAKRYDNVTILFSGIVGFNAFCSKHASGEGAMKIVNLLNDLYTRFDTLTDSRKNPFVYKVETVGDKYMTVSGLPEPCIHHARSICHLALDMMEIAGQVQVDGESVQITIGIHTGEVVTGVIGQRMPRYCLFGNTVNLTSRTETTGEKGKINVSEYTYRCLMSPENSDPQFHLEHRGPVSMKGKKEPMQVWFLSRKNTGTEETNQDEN
T1 sequence (P19686 1-690 partner): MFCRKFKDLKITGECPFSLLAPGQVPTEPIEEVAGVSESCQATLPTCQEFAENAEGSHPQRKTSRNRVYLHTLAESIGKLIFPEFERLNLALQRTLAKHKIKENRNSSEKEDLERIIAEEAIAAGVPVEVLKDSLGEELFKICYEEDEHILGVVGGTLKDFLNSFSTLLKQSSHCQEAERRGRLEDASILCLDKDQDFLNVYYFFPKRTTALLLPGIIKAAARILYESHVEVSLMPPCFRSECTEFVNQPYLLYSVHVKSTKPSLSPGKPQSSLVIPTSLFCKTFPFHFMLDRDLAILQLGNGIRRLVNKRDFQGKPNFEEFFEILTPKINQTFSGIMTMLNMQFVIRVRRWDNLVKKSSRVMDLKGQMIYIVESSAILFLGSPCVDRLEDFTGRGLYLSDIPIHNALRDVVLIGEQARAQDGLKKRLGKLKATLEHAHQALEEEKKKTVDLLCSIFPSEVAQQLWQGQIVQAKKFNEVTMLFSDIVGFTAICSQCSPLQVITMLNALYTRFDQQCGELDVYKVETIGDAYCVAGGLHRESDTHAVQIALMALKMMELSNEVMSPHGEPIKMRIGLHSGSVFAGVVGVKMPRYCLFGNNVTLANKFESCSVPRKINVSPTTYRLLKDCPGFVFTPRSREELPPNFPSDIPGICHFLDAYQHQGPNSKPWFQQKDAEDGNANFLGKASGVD
Assay: Effect on a recombinant guanylate cyclase reporter cell line
Type: cell-based
Conditions: in some cases mean values from individual determinations; for MEC: MEC = minimum effective concentration; for EC50: half maximal effective concentration
Description: The cellular activity of the compounds according to the invention was determined using a recombinant guanylate cyclase reporter cell line, as described in F. Wunder et al., Anal. Biochem. 339, 104-112 (2005).

SMILES	MEC [nM]	EC50 [nM]	MEC (hydrochloride) [nM]
CN1CCN(c2ccc(-c3ccc(Cl)cc3N3CCCC(n4ncc(C(=O)O)c4C(F)(F)F)C3)c(Cl)c2)CC1 (single isomer, unassigned) [Example 72, 1-[1-[5-Chloro-2-[2-chloro-4-(4-methylpiperazin-1-yl)phenyl]phenyl]-3-piperidyl]-5-(trifluoromethyl)pyrazole-4-carboxylic acid formic acid adduct]	10.0	64.5	
O=C(O)c1cnn(C2CCCN(c3cc(Cl)ccc3-c3ccc(N4CCN(CC(F)(F)F)CC4)nc3)C2)c1C(F)(F)F (single isomer, unassigned) [Example 75, 1-[1-[5-Chloro-2-[6-[4-(2,2,2-trifluoroethyl)piperazin-1-yl]-3-pyridyl]phenyl]-3-piperidyl]-5-(trifluoromethyl)pyrazole-4-carboxylic acid]	3.0	16	
O=C(O)c1cnn(C2CCCN(c3cc(Cl)ccc3-c3ccc(N4CCN(CC5CC5)CC4)c(F)c3)C2)c1C(F)(F)F (single isomer, unassigned) [Example 71, 1-[1-[5-Chloro-2-[4-[4-(cyclopropylmethyl)piperazin-1-yl]-3-fluoro-phenyl]phenyl]-3-piperidyl]-5-(trifluoromethyl)pyrazole-4-carboxylic acid hydrochloride]	10.0	69.5	
O=C(O)c1cnn(C2CCCN(c3cc(Cl)ccc3-c3ccc4c(c3)CCN(CC(F)(F)F)C4)C2)c1C(F)(F)F (single isomer, unassigned) [Example 80, 1-[1-[5-Chloro-2-[2-(2,2,2-trifluoroethyl)-3,4-dihydro-1H-isoquinolin-6-yl]phenyl]-3-piperidyl]-5-(trifluoromethyl)pyrazole-4-carboxylic acid]	10.0	85.5	
O=C(O)c1cnn(C2CCCN(c3cc(Cl)ccc3-c3ccc(N4CCN(CC(F)F)CC4)cc3)C2)c1C(F)(F)F (single isomer, unassigned) [Example 12, 1-[1-[5-Chloro-2-[4-[4-(2,2-difluoroethyl)piperazin-1-yl]phenyl]phenyl]-3-piperidyl]-5-(trifluoromethyl)pyrazole-4-carboxylic acid hydrochloride]		4.6	1.0
COC(=O)N1CCN(c2ccc(-c3ccc(Cl)cc3N3CCCC(n4ncc(C(=O)O)c4C(F)(F)F)C3)cc2)CC1 (single isomer, unassigned) [Example 54, 1-[1-[5-Chloro-2-[4-(4-methoxycarbonylpiperazin-1-yl)phenyl]phenyl]-3-piperidyl]-5-(trifluoromethyl)pyrazole-4-carboxylic acid]	3.0	11.1	
O=C(O)c1cnn(C2CCCN(c3cc(Cl)ccc3-c3ccc(N4CCN(C(=O)C5CC56CC6)CC4)cc3)C2)c1C(F)(F)F (single isomer, unassigned) [Example 53, 1-[1-{4-chloro-4′-[4-(spiro[2.2]pentane-1-carbonyl)piperazin-1-yl][1,1′-biphenyl]-2-yl}piperidin-3-yl]-5-(trifluoromethyl)-1H-pyrazole-4-carboxylic acid]	10.0	22	
CN1CCN(c2ccc(-c3ccc(Cl)cc3N3CCCC(n4ncc(C(=O)O)c4C(F)(F)F)C3)cc2)CC1 (single isomer, unassigned) [Example 2, 1-{1-[4-Chloro-4′-(4-methylpiperazin-1-yl)[1,1′-biphenyl]-2-yl]piperidin-3-yl}-5-(trifluoromethyl)-1H-pyrazole-4-carboxylic acid hydrochloride]		28.8	5.5
O=C(O)c1cnn(C2CCCN(c3cc(Cl)ccc3-c3ccc(N4CCN(C[C@@H]5C[C@@H]5F)CC4)cc3)C2)c1C(F)(F)F (single isomer, unassigned) [Example 28, hydrochloride]		5.5	3.0
